Results reported in ChEMBL document CHEMBL1136614, “Hydroporphyrins as tumour photosensitizers: synthesis and photophysical studies of 2,3-dihydro-5,15-di(3,5-dihydroxyphenyl) porphyrin” (2003).

Columns and labels:
C6 = experiment: Survival rates when cells were incubated for 5 hr without light; format: functional, Rattus norvegicus
HT-29 = experiment: Compound was tested for in vivo photo-sensitizing activity on human colon adenocarcinoma cell (HT-29); format: functional
[1] = Dose required to induce 90% death rate for C6 glioma cells from rats; format: functional, Rattus norvegicus

Compound: Oc1cc(O)cc(-c2c3nc(cc4ccc([nH]4)c(-c4cc(O)cc(O)c4)c4ccc(cc5nc2CC5)[nH]4)C=C3)c1
- Survival (C6): 100%
- Inhibition (HT-29): 40%
- LD90 [1]: 4.8 µg/mL
